Columns and labels:
Test in all cases: In vitro PAK inhibition assay (Z'-LYTE, SelectScreen Kinase Profiling)
Assay type in all cases: biochemical
PAK3 = PAK3 (Homo sapiens, UniProt O75914)
Experimental: (§1) Compounds are screened in 1% DMSO (final) in the well. For 10 point titrations, 3-fold serial dilutions are conducted. All Peptide/Kinase Mixtures are diluted to a 2× working concentration in the appropriate Kinase Buffer
The 2×PAK3/Ser/Thr 20 mixture is prepared in 50 mM HEPES pH 7.5, 0.01% BRIJ-35, 10 mM MgCl2, 1 mM EGTA.
(§2) Add the following solutions to a well in a 384-well plate: 2.5 μL of 4× Test Compound OR (100 nL 100× Test Compound plus 2.4 μL kinase buffer) • 5 μL of 2× Peptide/Kinase (PAK) Mixture • 2.5 μL of 4×ATP Solution • 2. Shake the plate for 30-seconds • 3. Incubate the PAK Kinase Reaction at room temperature for 60-minutes • 4. Add 5 μL of Development Reagent Solution to each well • 5. Shake the plate for 30-seconds • 6. Incubate the Development Reaction for 60-minutes • 7. Determine the fluorescence using a fluorescence plate reader • 8. Analyze the fluorescence data
(§3) SelectScreen® Kinase Profiling Service uses XLfit from IDBS.

PAK2 (PAK65) = PAK2 (PAK65) (Homo sapiens, UniProt Q13177)
Sequence of PAK2 (PAK65) (Q13177 whole entry): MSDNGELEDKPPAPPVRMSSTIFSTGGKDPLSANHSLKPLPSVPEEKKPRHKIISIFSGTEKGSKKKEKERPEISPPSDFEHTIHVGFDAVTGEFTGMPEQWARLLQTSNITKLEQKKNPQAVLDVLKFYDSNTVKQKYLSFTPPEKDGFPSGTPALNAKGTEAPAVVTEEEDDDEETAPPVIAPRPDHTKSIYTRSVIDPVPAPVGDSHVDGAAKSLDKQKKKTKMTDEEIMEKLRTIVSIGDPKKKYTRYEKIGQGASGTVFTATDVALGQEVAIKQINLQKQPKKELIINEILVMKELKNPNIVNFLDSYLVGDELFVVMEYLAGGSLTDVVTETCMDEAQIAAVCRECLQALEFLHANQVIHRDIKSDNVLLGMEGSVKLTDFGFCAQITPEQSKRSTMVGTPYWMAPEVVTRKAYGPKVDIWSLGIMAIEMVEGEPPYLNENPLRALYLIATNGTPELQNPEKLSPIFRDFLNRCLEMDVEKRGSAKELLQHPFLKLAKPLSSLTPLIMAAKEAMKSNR
Experimental: as §1
The 2×PAK2 (PAK65)/Ser/Thr 20 mixture is prepared in 50 mM HEPES pH 7.5, 0.01% BRIJ-35, 10 mM MgCl2, 1 mM EGTA. The final 10 μL Kinase Reaction consists of 0.29-6 ng PAK2 (PAK65) and 2 μM Ser/Thr 20 in 50 mM HEPES pH 7.5, 0.01% BRIJ-35, 10 mM MgCl2, 1 mM EGTA.
as §2, §3

PAK1 = PAK1 (Homo sapiens, UniProt Q13153)
Sequence of PAK1 (Q13153 whole entry): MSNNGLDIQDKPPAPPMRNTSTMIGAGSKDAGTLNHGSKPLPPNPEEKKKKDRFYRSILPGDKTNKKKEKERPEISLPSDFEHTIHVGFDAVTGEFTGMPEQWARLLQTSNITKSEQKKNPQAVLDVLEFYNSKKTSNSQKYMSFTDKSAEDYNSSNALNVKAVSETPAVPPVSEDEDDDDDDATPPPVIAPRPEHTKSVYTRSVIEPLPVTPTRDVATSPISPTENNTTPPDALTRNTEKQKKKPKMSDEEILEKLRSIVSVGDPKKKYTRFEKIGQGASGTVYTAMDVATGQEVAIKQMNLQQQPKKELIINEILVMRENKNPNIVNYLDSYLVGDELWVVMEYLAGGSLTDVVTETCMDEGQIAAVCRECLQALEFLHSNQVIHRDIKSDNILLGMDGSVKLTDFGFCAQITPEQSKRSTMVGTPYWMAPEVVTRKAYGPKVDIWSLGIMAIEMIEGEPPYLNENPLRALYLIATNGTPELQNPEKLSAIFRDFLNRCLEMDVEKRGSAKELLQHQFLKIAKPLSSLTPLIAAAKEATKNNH
Experimental: as §1
The 2×PAK1/Ser/Thr 19 mixture is prepared in 50 mM HEPES pH 7.5, 0.01% BRIJ-35, 10 mM MgCl2, 1 mM EGTA.
as §2, §3

PAK-4 = PAK-4 (Homo sapiens, UniProt O96013); details: read-out: PAK4 IC50
Sequence of PAK-4 (O96013 whole entry): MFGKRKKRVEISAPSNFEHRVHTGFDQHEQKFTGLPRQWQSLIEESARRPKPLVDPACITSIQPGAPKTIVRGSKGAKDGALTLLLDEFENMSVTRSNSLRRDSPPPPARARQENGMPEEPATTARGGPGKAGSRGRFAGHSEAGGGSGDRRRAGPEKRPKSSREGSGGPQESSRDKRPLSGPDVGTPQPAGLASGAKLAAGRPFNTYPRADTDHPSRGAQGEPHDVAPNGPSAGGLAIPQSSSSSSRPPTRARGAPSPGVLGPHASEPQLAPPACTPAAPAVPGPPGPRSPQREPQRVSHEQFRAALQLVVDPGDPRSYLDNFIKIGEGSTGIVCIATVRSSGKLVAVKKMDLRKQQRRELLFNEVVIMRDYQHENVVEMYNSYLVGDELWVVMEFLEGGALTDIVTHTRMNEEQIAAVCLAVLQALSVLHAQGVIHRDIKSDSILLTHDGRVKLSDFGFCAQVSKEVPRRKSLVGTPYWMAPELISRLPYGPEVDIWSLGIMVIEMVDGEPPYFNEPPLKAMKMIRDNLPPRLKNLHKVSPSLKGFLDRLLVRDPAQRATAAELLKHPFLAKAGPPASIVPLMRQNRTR
Experimental: as §1
The 2X PAK-4/Ser/Thr 20 mixture is prepared in 50 mM HEPES pH 7.5, 0.01% BRIJ-35, 10 mM MgCl2, 1 mM EGTA. The final 10 μL Kinase Reaction consists of 0.1-0.75 ng PAK-4 and 2 μM Ser/Thr 20 in 50 mM HEPES pH 7.5, 0.01% BRIJ-35, 10 mM MgCl2, 1 mM EGTA. After the 1 hour Kinase Reaction incubation, 5 μL of a 1:256 dilution of Development Reagent A is added.
as §2, with “Bar-coded Corning, low volume NBS, black 384-well plate (Corning Cat. #3676) • 1. Add the” for “Add the”
SelectScreen® Kinase Profiling Service uses XLfit from IDBS. The dose response curve is curve fit to model number 205 (sigmoidal dose-response model).

Sequence of PAK3 (O75914 whole entry): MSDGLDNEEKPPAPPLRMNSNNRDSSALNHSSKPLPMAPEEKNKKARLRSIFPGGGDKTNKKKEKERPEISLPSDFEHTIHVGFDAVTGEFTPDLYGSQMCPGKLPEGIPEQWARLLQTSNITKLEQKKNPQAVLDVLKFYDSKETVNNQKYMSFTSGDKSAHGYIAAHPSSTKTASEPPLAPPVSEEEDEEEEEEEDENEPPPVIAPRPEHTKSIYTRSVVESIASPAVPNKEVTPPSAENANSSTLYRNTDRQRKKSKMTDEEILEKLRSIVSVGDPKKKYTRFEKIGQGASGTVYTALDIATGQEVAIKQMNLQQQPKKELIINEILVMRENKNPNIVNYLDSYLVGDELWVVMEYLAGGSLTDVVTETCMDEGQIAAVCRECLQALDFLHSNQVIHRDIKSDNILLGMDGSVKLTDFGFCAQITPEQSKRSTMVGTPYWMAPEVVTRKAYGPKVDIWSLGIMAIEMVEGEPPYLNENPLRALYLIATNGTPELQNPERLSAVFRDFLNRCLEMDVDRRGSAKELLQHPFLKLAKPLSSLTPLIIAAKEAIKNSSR

| Compound | IC50 (PAK3) | IC50 (PAK2 (PAK65)) | IC50 (PAK1) | IC50 (PAK-4) |
| --- | --- | --- | --- | --- |
| CCn1c(=O)c(-c2ccc(-c3cncc(C)n3)cc2Cl)cc2cnc(Nc3ccc(C4CCN(C)CC4)cc3)nc21 | < 50 nM | < 50 nM | < 50 nM | 0.5 to 5 µM |
| CCn1c(=O)c(-c2ccc(-c3nnco3)cc2Cl)cc2cnc(Nc3ccc(N4CCN(C)CC4)cc3)nc21 | < 50 nM | < 50 nM | < 50 nM | 0.5 to 5 µM |
| CCn1c(=O)c(-c2ccc(-c3cccnc3C)cc2F)cc2cnc(Nc3ccc(C4CCN(C)CC4)cc3)nc21 | 50 to 500 nM | 50 to 500 nM | 50 to 500 nM | ≥ 5 µM |
| CCn1c(=O)c(-c2ccc(-c3ccnc(C)n3)cc2Cl)cc2cnc(Nc3ccc(C4CCN(C)CC4)cc3)nc21 | < 50 nM | < 50 nM | < 50 nM | 0.5 to 5 µM |
| Cc1nc(-c2ccc(-c3cc4cnc(Nc5ccc(C6CCN(C)CC6)cc5)nc4n(C)c3=O)c(Cl)c2)no1 | < 50 nM | < 50 nM | < 50 nM | ≥ 5 µM |
| CCn1c(=O)c(-c2ccc(-c3cccnc3C)cc2)cc2cnc(Nc3ccc(C4CCN(C)CC4)cc3)nc21 | 500 to 5000 nM | 500 to 5000 nM | 500 to 5000 nM | ≥ 5 µM |
| CN1CCC(c2ccc(Nc3ncc4ccc(=O)n(Cc5c(F)cccc5C5CC5)c4n3)cc2)CC1 | 50 to 500 nM | 50 to 500 nM | < 50 nM | 0.05 to 0.5 µM |
| CC#Cc1cc2cnc(Nc3ccc(N4CCN(C)CC4)cc3)nc2n(Cc2ccccc2C(F)(F)F)c1=O | 500 to 5000 nM | 50 to 500 nM | 50 to 500 nM | 0.5 to 5 µM |
| CCn1c(=O)c(-c2ccc(-c3cccnc3F)cc2Cl)cc2cnc(Nc3ccc(C4CCN(C)CC4)cc3)nc21 | < 50 nM | < 50 nM | < 50 nM | 0.05 to 0.5 µM |
| CCn1c(=O)c(-c2ccc(S(C)(=O)=O)cc2)cc2cnc(Nc3ccc(N4CCN(C)CC4)cc3)nc21 | > 5000 nM | > 5000 nM | > 5000 nM | ≥ 5 µM |
| CCn1c(=O)c(-c2ccc(-c3cccnc3F)cc2Cl)cc2cnc(Nc3ccc(C4CCNCC4)cc3)nc21 | < 50 nM | < 50 nM | < 50 nM | 0.05 to 0.5 µM |
| Cc1cc(-c2nccnc2C)ccc1-c1cc2cnc(Nc3ccc(C4CCN(C)CC4)cc3)nc2n(C)c1=O | 50 to 500 nM | < 50 nM | < 50 nM | ≥ 5 µM |
| CCn1c(=O)c(-c2ccc(-c3cccnc3F)cc2Cl)cc2cnc(Nc3ccc(C4CCN5CCCC5C4)cc3)nc21 (centres unmarked) | < 50 nM | < 50 nM | < 50 nM | 0.5 to 5 µM |
| CCn1c(=O)c(-c2ccc(-c3cncs3)cc2Cl)cc2cnc(Nc3ccc(N4CCN(C)CC4)cc3)nc21 | – | – | – | ≥ 5 µM |
| CCn1c(=O)c(-c2ccc(-c3cccnc3C)nc2)cc2cnc(Nc3ccc(C4CCN(C)CC4)cc3)nc21 | > 5000 nM | > 5000 nM | > 5000 nM | ≥ 5 µM |
| CCn1c(=O)c(-c2ccc(-c3noc(C)n3)cc2Cl)cc2cnc(Nc3ccc(CCN(C)C)cc3)nc21 | < 50 nM | < 50 nM | < 50 nM | 0.5 to 5 µM |
| CCn1c(=O)c(-c2ccc(-c3cnc(C)cn3)cc2Cl)cc2cnc(Nc3ccc(C4CCN(C)CC4)cc3)nc21 | < 50 nM | < 50 nM | < 50 nM | 0.05 to 0.5 µM |
| CCN1CCN(c2ccc(Nc3ncc4cc(-c5ccc(-c6cccnc6)cc5Cl)c(=O)n(CC)c4n3)cc2F)CC1 [drawing 727] | < 50 nM | < 50 nM | < 50 nM | ≥ 5 µM |
| CCn1c(=O)c(-c2ccc(-c3nccnc3C)cc2Cl)cc2cnc(Nc3ccc(C4CCN(C)CC4)cc3)nc21 | < 50 nM | < 50 nM | < 50 nM | 0.5 to 5 µM |

| Compound | IC50 (PAK3) | IC50 (PAK2 (PAK65)) | IC50 (PAK1) | IC50 (PAK-4) |
| --- | --- | --- | --- | --- |
| CCn1c(=O)c(-c2ccc(-c3cccnc3)cc2Cl)cc2cnc(Nc3ccc(CCN(C)C)cc3)nc21 | < 50 nM | < 50 nM | < 50 nM | 0.5 to 5 µM |
| CN1CCN(c2ccc(Nc3ncc4ccc(=O)n(Cc5occc5C5CC5)c4n3)cc2)CC1 | 500 to 5000 nM | 500 to 5000 nM | 500 to 5000 nM | 0.5 to 5 µM |
| CCn1c(=O)c(-c2cccc(S(C)(=O)=O)c2)cc2cnc(Nc3ccc(N4CCN(C)CC4)cc3)nc21 | 50 to 500 nM | 500 to 5000 nM | 50 to 500 nM | ≥ 5 µM |
| CCn1c(=O)c(-c2ccc(-c3noc(C)n3)cc2Cl)cc2cnc(Nc3ccc(C4CCN(C)CC4)cc3)nc21 | < 50 nM | < 50 nM | < 50 nM | 0.5 to 5 µM |
| CCn1c(=O)c(-c2ccc(-c3ccnc(C)c3)cc2Cl)cc2cnc(Nc3ccc(C4CCNCC4)c(F)c3)nc21 | 50 to 500 nM | < 50 nM | < 50 nM | 0.5 to 5 µM |
| CCn1c(=O)c(-c2ccc(-c3cnc(C)s3)cc2Cl)cc2cnc(Nc3ccc(C4CCNCC4)cc3)nc21 | < 50 nM | < 50 nM | < 50 nM | 0.5 to 5 µM |
| CCn1c(=O)c(-c2ccc(-c3noc(C)n3)cc2Cl)cc2cnc(Nc3ccc(C4CCNCC4)cc3)nc21 | 50 to 500 nM | < 50 nM | < 50 nM | 0.5 to 5 µM |
| CN(C)CCc1ccc(Nc2ncc3cc(-c4cc(N(C)C)c(-c5cccnc5)cc4Cl)c(=O)n(C)c3n2)cc1 | < 50 nM | 50 to 500 nM | < 50 nM | ≥ 5 µM |
| CCS(=O)(=O)c1ccccc1Cn1c(=O)c(-c2ccccc2Cl)cc2cnc(Nc3ccc(N4CCN(C)CC4)cc3)nc21 | < 50 nM | < 50 nM | < 50 nM | 0.5 to 5 µM |
| CCn1c(=O)c(-c2ccc(-c3cccnc3F)cc2Cl)cc2cnc(Nc3ccc(N4CCN(C)CC4)cc3)nc21 | < 50 nM | < 50 nM | < 50 nM | 0.05 to 0.5 µM |
| CCN1CCC(c2ccc(Nc3ncc4cc(-c5ccc(-c6cccnc6C)cc5Cl)c(=O)n(CC)c4n3)cc2)CC1 | < 50 nM | < 50 nM | < 50 nM | ≥ 5 µM |
| CCn1c(=O)c(-c2ccc(-c3ccnc(C(N)=O)c3)cc2Cl)cc2cnc(Nc3ccc(C4CCN(C)CC4)cc3)nc21 | 50 to 500 nM | 50 to 500 nM | 50 to 500 nM | ≥ 5 µM |
| CCN1CCC(c2ccc(Nc3ncc4cc(-c5ccc(-c6ccc(C)nc6)cc5Cl)c(=O)n(CC)c4n3)cc2)CC1 | < 50 nM | < 50 nM | < 50 nM | 0.5 to 5 µM |
| CCS(=O)(=O)c1ccccc1Cn1c(=O)ccc2cnc(Nc3ccc(N4CCN(C)CC4)cc3)nc21 | 500 to 5000 nM | 50 to 500 nM | 50 to 500 nM | 0.5 to 5 µM |
| CCn1c(=O)c(-c2ccc(-c3cccnc3C)cc2Cl)cc2cnc(Nc3ccc(C4CCNCC4)cc3)nc21 | < 50 nM | < 50 nM | < 50 nM | ≥ 5 µM |
| CC#Cc1cc2cnc(Nc3ccc(N4CCN(C)CC4)cc3)nc2n(Cc2c(F)cccc2C2CC2)c1=O | 50 to 500 nM | 50 to 500 nM | 50 to 500 nM | 0.5 to 5 µM |
| CCN1CCC(c2ccc(Nc3ncc4cc(-c5ccc(-c6noc(C)n6)cc5Cl)c(=O)n(CC)c4n3)cc2)CC1 | < 50 nM | < 50 nM | < 50 nM | 0.5 to 5 µM |
| CN1CCN(c2ccc(Nc3ncc4ccc(=O)n(Cc5ncsc5C5CC5)c4n3)cc2)CC1 | 500 to 5000 nM | 500 to 5000 nM | 50 to 500 nM | 0.5 to 5 µM |
| CCn1c(=O)c(-c2ccc(-c3cnc(C)s3)cc2Cl)cc2cnc(Nc3ccc(C4CCN(C)CC4)cc3)nc21 | < 50 nM | < 50 nM | < 50 nM | 0.5 to 5 µM |
